Residues, ends and D or L forms follow the SMILES beside them. *: point of attachment. Cbz = O=C(OCc1ccccc1)*; Boc = CC(C)(C)OC(=O)*

In general, melting point refers to the temperature of the solid-liquid transition. Consider `O=c1oc(-c2cccc(S(=O)(=O)C(F)(F)F)c2)nc2ccccc12`, for which the melting point is 96 to 102 °C. Consider `CC(C)CC(=O)N[C@H]1CC[C@H](CCN2CCC(c3cccc4c3CCO4)CC2)CC1`, for which the melting point was 197 °C.

Regarding `COCCCn1c(O)nc2ccc(C)cc21`, the melting point lay in the range of 118 to 120 °C. With `O=C1OC(=O)c2c1cccc2-c1ccccc1` the figure was 148 to 149 °C; with `Nc1ccc(Br)c2ccn3c(=O)c(C(=O)O)cnc3c12`, 283 to 284 °C; with `CC(=O)c1ccc(C(C)=O)s1`, 171 to 173 °C.

Regarding `O=C1NCc2c1cc1ccc3c(c1c2-c1ccc(Br)cc1)OCO3`, the melting point lay within 273 to 274 °C. With `COC(=O)Cc1cn(-c2ccccc2)nc1O`, the melting point lay in the range of 144 to 145 °C.

Take `COC(=O)c1ccc2oc(Cl)nc2c1`: the melting point is 104 to 106 °C. The same measure for `Cc1cc(C)c2nc3sccn3c(=O)c2c1`: 190 to 192 °C; for `O=C(NS(=O)(=O)c1ccccc1)c1ccc2nc(C3CC3)n(Cc3ccc(-c4ccccc4)cc3)c2c1`: 221 to 225 °C; for `O=C1NC(=Cc2ccc(Cl)cc2Cl)C(=O)C1=NO`: 180 °C. The same measure for `CCCCCCCCCCCCCCOc1ccc(C(=O)Nc2cccc(CO)c2)cc1`: 112 to 115 °C; for `CN(C)C(=O)c1c(-c2ccc(C(F)(F)F)cc2)ccc2ccccc12`: 184 to 186 °C; for `CN(C(=O)OCC(Cl)(Cl)Cl)C1CN(C(=O)Nc2ccc(C(F)(F)F)cc2)N=C1c1ccc(Cl)cc1` (stereo unspecified): 169 to 170 °C. In the case of `CSc1ccc(/C=C2\N=C(C)OC2=O)cc1`, the melting point was 154 to 155 °C. The same measure for `CN(C)c1ccc([N+](=O)[O-])cc1Cl`: 71 to 73 °C. The compound `COCc1nc(N)nc(N)c1-c1cc(Cl)cc(Cl)c1Cl` gave a melting point of 265 to 268 °C. The same measure for `Cn1cc(-c2cc(-c3cnc4[nH]ccc4c3)ccn2)n(-c2ccc(C(C)(C)C#N)cc2)c1=O`: 248 °C; for `CN(C)CCCOc1ccnc2cc([N+](=O)[O-])ccc12`: 146 to 149 °C; for `NC(=O)N(O)CC(=O)Nc1cccc(OCc2ccccc2)c1`: 177 to 178 °C. For the compound `O=C(Nc1ccc(Oc2ccccc2)cc1)N1CCN(c2nccc3ccccc23)CC1`, the melting point fell in the range of 122 to 123 °C.

As for `CCCCc1nc2cccnc2n1Cc1ccc2c(Cl)c(C(=O)OC)sc2c1`, the melting point was in the range of 127 to 129 °C. The same measure for `OC(c1ccccc1)(C1CC1)C(c1ccccc1Cl)n1ccnc1` (stereo unspecified): 146 °C; for `COc1cccc(C=CCN2CCc3nc(N)sc3CC2)c1`: 120 to 124 °C; for `CC(=O)c1c(O)c(C(C)=O)c(C(C)=O)c2c1Oc1cc(O)ccc1N2`: 208 °C. The compound `Cn1ncnc1COc1nn2cnnc2cc1-c1ccsc1` returned a melting point of 220 to 222 °C. Regarding `N#Cc1c(C#N)c(Oc2ccc3ccccc3c2)c(Oc2ccc3ccccc3c2)c(Oc2ccc3ccccc3c2)c1Oc1ccc2ccccc2c1`, the melting point fell in the range of 188 to 190 °C. For `CN(C)c1ccc(S(=O)(=O)n2c(CCCC(=O)O)cc3nc(Cl)ccc32)cc1`, the melting point is 76 °C. With `O=C1Nc2ccncc2N2CCNCC12` (stereo unspecified) the figure was 303 to 306 °C; with `N#Cc1cnccc1CCCOc1cccnc1Oc1cccc(Cl)c1`, 146 to 150 °C. The same measure for `O=S(=O)(c1ccc(I)cc1)N1CCOCC1`: 141 to 144 °C; for `Cc1ccc2c(c1)c1c(n2C(=O)c2ccccc2)CCCC1C(=O)O` (stereo unspecified): 149 to 153 °C; for `Oc1ccc(-c2cc3cc(O)cc(-c4nnco4)c3o2)cc1`: 260 to 266 °C. The same measure for `CCn1ccc(C2(c3cccc(-c4cncnc4)c3)N=C(N)N(C)C2=O)c1` (stereo unspecified): 100 to 102 °C. `Cc1ccc(C)c(-c2c(C)ccc(C)c2O)c1O` had a melting point of 110 to 113 °C. With `CC(C)(C)C(NC(=O)Cc1ccc2ncccc2c1)NC(=NC#N)Nc1cccc2ncccc12` (stereo unspecified) the figure was 150 to 151 °C. With `CC(=O)OC1CSC(Oc2cccc(-c3ncccc3F)c2)C(OC(C)=O)C1OC(C)=O` (stereo unspecified) the figure was 51 °C; with `O=C(O)COc1cccc2c1CCc1sc(S(=O)(=O)CCCC(c3ccccc3)c3ccccc3)nc1-2`, 180 to 181 °C. The same measure for `CCCCOc1nc(NC2=CCC(=C=C3CC4CCC3(C)C4(C)C)C=C2)nc(NC2=CCC(=C=C3CC4CCC3(C)C4(C)C)C=C2)n1`: 181 °C; for `OCc1ccccc1CCCc1cc2c(cc1O)CCO2`: 110 to 112 °C. `CNC(=O)N(O)C(C)c1ccc(Cl)c(C)c1` (stereo unspecified) yielded a melting point of 99 to 102 °C. The same measure for `COc1ccc(C(=O)NC(C)(C#N)c2ccccn2)cc1` (stereo unspecified): 173 °C. With `Brc1ncccc1-c1cccnc1` the figure was 97 to 98 °C. The same measure for `COc1cc(C(=O)c2c(-c3ccc(OCCN4CCCC4)c(COCc4ccccc4)c3)sc3cc(O)ccc23)ccc1CN1CCOCC1`: 87 to 90 °C; for `COc1ccc(CN(C)CCOc2ccc(NC(=O)c3cccc4c(=O)c5cc(SC)ccc5[nH]c34)cc2)cc1OC`: 160 °C; for `CCCCCCS(=O)(=O)c1c(O)cc(C)oc1=O`: 65 to 66 °C. Compound `ClC(Cl)(Cl)c1cnnc2ccccc12` displayed a melting point of 137 °C. In turn, `O=C(NCc1ccc(Cl)c(Cl)c1)Nc1cccc2[nH]ccc12` had a melting point of 201 °C. The same measure for `Cc1nnc(-c2ccccc2F)n2nc(OCc3ncn(C)n3)c(-c3ccsc3)c12`: 214 to 217 °C. With `Cc1ccnc2[nH]c(C3CC3)nc12` the figure was 203 to 204 °C; with `Cc1ccc(C(=O)c2ccc(O)cc2)cc1O`, 174 to 175 °C. `CS(=O)(=O)c1sc(S(N)(=O)=O)cc1CCO` registered a melting point of 120 to 124 °C.

In the case of `N#Cc1ccc(OC[C@H](O)CO)cc1`, the melting point was in the range of 63 to 65 °C. The same measure for `Nc1ccc2oc(-c3ccccc3)nc2c1`: 155 to 157 °C; for `COC(=O)c1cn(Cc2ccccc2F)cn1`: 87 to 89 °C. For `CC(C)(C)OC(=O)N(C(=O)OC(C)(C)C)c1cnc(-c2cncc(F)c2)s1`, the melting point lay within 94 to 96 °C.

The compound `N#Cc1ccccc1N1CCN(CCCCCC(=O)O)CC1` had a melting point of 120 °C. `Nc1nc2ccccc2c(=O)[nH]1` came in with a melting point greater than 300 °C.

In the case of `Fc1ccccc1C1=NCCN(C2=NCCO2)c2ccc(Cl)cc21`, the melting point is 162 to 164 °C. With `CCOC(=O)c1nc(NCC(c2ccccc2)c2ccccc2)c2ncn(C3CCCCO3)c2n1` (stereo unspecified) the figure was 138 to 140 °C; with `Cc1cc(C(F)F)c2c(n1)C(O)CCC2` (stereo unspecified), 101 to 104 °C.

With `CC(C)N1C(=O)NC(c2ccc3c(c2)CCC3)c2cc3c(cc21)OCO3` (stereo unspecified), the melting point lay within 146 to 148 °C. In the case of `CCC(=O)SCCNC(=O)CCNC(=O)OCc1ccccc1`, the melting point was 77 to 104 °C. With `COc1ccc(-c2cc(=S)n(Cc3ccc(F)cc3)nc2-c2ccc(OC)cc2)cc1` the figure was 137 to 138 °C; with `CCOC(=O)c1cc(-c2ccncc2)c(C(F)(F)F)nc1N`, 121 to 125 °C. The same measure for `CC(CO)Oc1ccc(CNc2ccc(Cl)cc2)cc1` (stereo unspecified): 81 to 83 °C; for `COc1cc(Br)c(O)c(/C=C/C(=O)/C=C/c2cc(OC)cc(Br)c2O)c1`: 155 to 157 °C; for `CCCNS(=O)(=O)c1cc(C(=O)CCC(=O)OC)ccc1Cl`: 93 to 94 °C.

In turn, `Cc1cc(NC(=O)C(C)(C)C)n(C)n1` showed a melting point of 86 to 88 °C. Consider `Cc1cc(-n2cnn(Cc3ccc(S(C)(=O)=O)cc3)c2=O)sc1C(=O)NCc1cccnc1`, for which the melting point lay in the range of 208 to 210 °C. The same measure for `CC(=O)OCCN1C(=O)C(=Cc2cc(C(C)(C)C)c(O)c(C(C)(C)C)c2)SC1=S`: 140 to 143 °C; for `Clc1cc2oc3ccccc3c2nn1`: 122 °C.

As for `O=[N+]([O-])c1ccc(Oc2cc3ccccc3cc2Oc2ccc([N+](=O)[O-])c(O)c2)cc1O`, the melting point was 179 to 181 °C. The same measure for `COC(=O)c1c(OC)cc(N(C)C)nc1C`: 65 to 66 °C; for `c1ccc(C2CCN=C(c3csnn3)N2)cc1` (stereo unspecified): 158 °C. The same measure for `O=C(O)C=CCCCCCc1cccc2cncn12`: 110 to 111 °C; for `CC1(C(=O)O)CC1(Br)Br` (stereo unspecified): 108 to 109 °C; for `O=C(NCc1cccnc1)c1ccc2n1Cc1ccccc1N(C(=O)c1ccc(-c3ccccc3CN3CCOCC3)cc1)C2`: 191 to 194 °C. Turning to `CC(c1ccc(CCNC(=O)c2ccc(Br)cc2)cc1)N1CCCC1` (stereo unspecified), the melting point lay within 124 to 126 °C. The same measure for `CC(C)(C)OC(=O)CC(Cc1ccccc1)NC(=O)C1Cc2ccccc2N1S(=O)(=O)c1ccc(-c2ccc(F)cc2)cc1` (stereo unspecified): 67 to 73 °C; for `Nc1nc(S(N)=O)c2[nH]cnc2n1` (stereo unspecified): greater than 250 °C. With `CC(C)CC(NC(=O)OCc1ccccc1)C(=O)NC(CCCCNC(=O)OC(C)(C)C)C(=O)O` (stereo not drawn) (Cbz-Leu-Lys(Boc)-OH; configuration not given here) the figure was 125 to 128 °C. Compound `Cn1c(C(F)(F)F)cc(=O)n(-c2ccc3snc(CC(=O)O)c3c2)c1=O` gave a melting point of 240 to 242 °C.

`CCCN(CCc1c[nH]c2ccc(F)cc12)C1COc2c(F)ccc(C(N)=O)c2C1` (stereo unspecified): the melting point was determined as 125 °C. With `Nc1cc(C=O)nc(C2CCCO2)c1F` (stereo unspecified) the figure was 122 to 123 °C; with `CC(C)NC(=O)NC1CCC(=O)c2ccccc21` (stereo unspecified), 185 to 188 °C; with `CCCCC(c1ccc2[nH]c(=O)c(-c3ccccc3)nc2c1)n1ccnc1` (stereo unspecified), 192 °C.

Take `CSc1ccc2ncc([N+](=O)[O-])c(-c3ccccc3)c2c1`: the melting point was in the range of 131 to 133 °C. With `CNC(=O)[C@@H](NC(=O)[C@H](CC(=O)O)CC(C)C)C(C)(C)C` the figure was 204 to 205 °C; with `CC(C)Oc1ccc(COc2ccc(CC(=O)O)cc2Cl)cc1Cl`, 129 to 130 °C.

Values taken from a melting point compilation (Tetko et al.; mined from patent text by program, amines drawn as free bases though some values may be those of a salt).
